In ChEMBL document CHEMBL4725412, “Augmenting the Activity of Macrolide Adjuvants against Acinetobacter baumannii” (2020):

Assays:
Type in all cases: functional
Acinetobacter baumannii [1] = assay: Potentiation of clarithromycin-induced antibacterial activity against Acinetobacter baumannii 4025 assessed as fold reduction in clarithromycin MIC at 7.5 uM incubated for 16 hrs by broth microdilution method
Acinetobacter baumannii [2] = assay: Potentiation of clarithromycin-induced antibacterial activity against Acinetobacter baumannii 3785 assessed as fold reduction in clarithromycin MIC at 7.5 uM incubated for 16 hrs by broth microdilution method
Acinetobacter baumannii [3] = assay: Antibacterial activity against Acinetobacter baumannii 4052 assessed as reduction in microbial growth incubated for 16 hrs by broth microdilution method
Acinetobacter baumannii [4] = assay: Potentiation of clarithromycin-induced antibacterial activity against Acinetobacter baumannii 4027 assessed as fold reduction in clarithromycin MIC at 7.5 uM incubated for 16 hrs by broth microdilution method
Acinetobacter baumannii [5] = assay: Antibacterial activity against Acinetobacter baumannii 4795 assessed as reduction in microbial growth incubated for 16 hrs by broth microdilution method
Acinetobacter baumannii [6] = assay: Antibacterial activity against Acinetobacter baumannii 4025 assessed as reduction in microbial growth incubated for 16 hrs by broth microdilution method
Acinetobacter baumannii [7] = assay: Potentiation of clarithromycin-induced antibacterial activity against Acinetobacter baumannii 5001 assessed as fold reduction in clarithromycin MIC at 7.5 uM incubated for 16 hrs by broth microdilution method
Acinetobacter baumannii [8] = assay: Antibacterial activity against Acinetobacter baumannii 3806 assessed as reduction in microbial growth incubated for 16 hrs by broth microdilution method
Acinetobacter baumannii [9] = assay: Antibacterial activity against Acinetobacter baumannii AB5075 assessed as reduction in microbial growth incubated for 16 hrs by broth microdilution method
Acinetobacter baumannii [10] = assay: Potentiation of clarithromycin-induced antibacterial activity against Acinetobacter baumannii 5711 assessed as fold reduction in clarithromycin MIC at 7.5 uM incubated for 16 hrs by broth microdilution method
Acinetobacter baumannii [11] = assay: Antibacterial activity against Acinetobacter baumannii 4027 assessed as reduction in microbial growth incubated for 16 hrs by broth microdilution method
Acinetobacter baumannii [12] = assay: Potentiation of clarithromycin-induced antibacterial activity against Acinetobacter baumannii 3927 assessed as fold reduction in clarithromycin MIC at 7.5 uM incubated for 16 hrs by broth microdilution method
Acinetobacter baumannii [13] = assay: Potentiation of clarithromycin-induced antibacterial activity against Acinetobacter baumannii 4957 assessed as fold reduction in clarithromycin MIC at 7.5 uM incubated for 16 hrs by broth microdilution method
Acinetobacter baumannii [14] = assay: Potentiation of clarithromycin-induced antibacterial activity against Acinetobacter baumannii 4490 assessed as fold reduction in clarithromycin MIC at 7.5 uM incubated for 16 hrs by broth microdilution method
Acinetobacter baumannii [15] = assay: Potentiation of clarithromycin-induced antibacterial activity against Acinetobacter baumannii AB5075 assessed as clarithromycin MIC at 5 uM incubated for 16 hrs by broth microdilution method (reference value: […] ug/ml)
Acinetobacter baumannii [16] = assay: Potentiation of clarithromycin-induced antibacterial activity against Acinetobacter baumannii 4795 assessed as fold reduction in clarithromycin MIC at 7.5 uM incubated for 16 hrs by broth microdilution method
Acinetobacter baumannii [17] = assay: Antibacterial activity against Acinetobacter baumannii 4448 assessed as reduction in microbial growth incubated for 16 hrs by broth microdilution method
Acinetobacter baumannii [18] = assay: Antibacterial activity against Acinetobacter baumannii 5197 assessed as reduction in microbial growth incubated for 16 hrs by broth microdilution method
Acinetobacter baumannii [19] = assay: Potentiation of clarithromycin-induced antibacterial activity against Acinetobacter baumannii 4448 assessed as fold reduction in clarithromycin MIC at 7.5 uM incubated for 16 hrs by broth microdilution method
Acinetobacter baumannii [20] = assay: Antibacterial activity against Acinetobacter baumannii 4456 assessed as reduction in microbial growth incubated for 16 hrs by broth microdilution method
Acinetobacter baumannii [21] = assay: Potentiation of clarithromycin-induced antibacterial activity against Acinetobacter baumannii 4498 assessed as fold reduction in clarithromycin MIC at 7.5 uM incubated for 16 hrs by broth microdilution method
Acinetobacter baumannii [22] = assay: Antibacterial activity against Acinetobacter baumannii 4026 assessed as reduction in microbial growth incubated for 16 hrs by broth microdilution method
Acinetobacter baumannii [23] = assay: Potentiation of clarithromycin-induced antibacterial activity against Acinetobacter baumannii 5197 assessed as fold reduction in clarithromycin MIC at 7.5 uM incubated for 16 hrs by broth microdilution method
Acinetobacter baumannii [24] = assay: Antibacterial activity against Acinetobacter baumannii 3927 assessed as reduction in microbial growth incubated for 16 hrs by broth microdilution method
Acinetobacter baumannii [25] = assay: Potentiation of clarithromycin-induced antibacterial activity against Acinetobacter baumannii 3560 assessed as fold reduction in clarithromycin MIC at 7.5 uM incubated for 16 hrs by broth microdilution method
Acinetobacter baumannii [26] = assay: Potentiation of clarithromycin-induced antibacterial activity against Acinetobacter baumannii 5256 assessed as fold reduction in clarithromycin MIC at 7.5 uM incubated for 16 hrs by broth microdilution method
Acinetobacter baumannii [27] = assay: Antibacterial activity against Acinetobacter baumannii 5711 assessed as reduction in microbial growth incubated for 16 hrs by broth microdilution method
Acinetobacter baumannii [28] = assay: Antibacterial activity against Acinetobacter baumannii 4957 assessed as reduction in microbial growth incubated for 16 hrs by broth microdilution method
Acinetobacter baumannii [29] = assay: Antibacterial activity against Acinetobacter baumannii 8967 assessed as reduction in microbial growth incubated for 16 hrs by broth microdilution method
Acinetobacter baumannii [30] = assay: Antibacterial activity against Acinetobacter baumannii 4991 assessed as reduction in microbial growth incubated for 16 hrs by broth microdilution method
Acinetobacter baumannii [31] = assay: Potentiation of clarithromycin-induced antibacterial activity against Acinetobacter baumannii 4052 assessed as fold reduction in clarithromycin MIC at 7.5 uM incubated for 16 hrs by broth microdilution method
Acinetobacter baumannii [32] = assay: Antibacterial activity against Acinetobacter baumannii 4498 assessed as reduction in microbial growth incubated for 16 hrs by broth microdilution method
Acinetobacter baumannii [33] = assay: Potentiation of clarithromycin-induced antibacterial activity against Acinetobacter baumannii AB5075 assessed as clarithromycin MIC at 15 uM incubated for 16 hrs by broth microdilution method (reference value: […] ug/ml)
Acinetobacter baumannii [34] = assay: Antibacterial activity against Acinetobacter baumannii 4857 assessed as reduction in microbial growth incubated for 16 hrs by broth microdilution method
Acinetobacter baumannii [35] = assay: Antibacterial activity against Acinetobacter baumannii 5256 assessed as reduction in microbial growth incubated for 16 hrs by broth microdilution method
Acinetobacter baumannii [36] = assay: Antibacterial activity against Acinetobacter baumannii 5001 assessed as reduction in microbial growth incubated for 16 hrs by broth microdilution method
Acinetobacter baumannii [37] = assay: Antibacterial activity against Acinetobacter baumannii 3560 assessed as reduction in microbial growth incubated for 16 hrs by broth microdilution method
Acinetobacter baumannii [38] = assay: Potentiation of clarithromycin-induced antibacterial activity against Acinetobacter baumannii 3806 assessed as fold reduction in clarithromycin MIC at 7.5 uM incubated for 16 hrs by broth microdilution method
Acinetobacter baumannii [39] = assay: Antibacterial activity against Acinetobacter baumannii 4490 assessed as reduction in microbial growth incubated for 16 hrs by broth microdilution method
Acinetobacter baumannii [40] = assay: Potentiation of clarithromycin-induced antibacterial activity against Acinetobacter baumannii AB5075 assessed as fold reduction in clarithromycin MIC at 5 uM incubated for 16 hrs in presence of clarithromycin by broth microdilution method
Acinetobacter baumannii [41] = assay: Antibacterial activity against Acinetobacter baumannii 4269 assessed as reduction in microbial growth incubated for 16 hrs by broth microdilution method

`Cl.Nc1nc(-c2ccc(NC(=O)Nc3cc(Br)cc(Br)c3)cc2)c[nH]1` was tested, and the “fold change (FC)” value (Acinetobacter baumannii [1]) was 16, the “fold change (FC)” value (Acinetobacter baumannii [2]) was 16 and the MIC (Acinetobacter baumannii [3]) was 25 µM. The “fold change (FC)” value (Acinetobacter baumannii [4]) was 16, the MIC (Acinetobacter baumannii [5]) was 25 µM and the MIC (Acinetobacter baumannii [6]) was 25 µM. For the same molecule, the “fold change (FC)” value (Acinetobacter baumannii [7]) was 16, the MIC (Acinetobacter baumannii [8]) was 25 µM and the MIC (Acinetobacter baumannii [9]) was 50 µM. The “fold change (FC)” value (Acinetobacter baumannii [10]) was 16, the MIC (Acinetobacter baumannii [11]) was 25 µM and the “fold change (FC)” value (Acinetobacter baumannii [12]) was 16. For the same molecule, the “fold change (FC)” value (Acinetobacter baumannii [13]) was 16, the “fold change (FC)” value (Acinetobacter baumannii [14]) was 16 and the MIC (Acinetobacter baumannii [15]) was 4 µg/mL. The “fold change (FC)” value (Acinetobacter baumannii [16]) was 16, the MIC (Acinetobacter baumannii [17]) was 25 µM and the MIC (Acinetobacter baumannii [18]) was 25 µM. For the same molecule, the “fold change (FC)” value (Acinetobacter baumannii [19]) was 16, the MIC (Acinetobacter baumannii [20]) was 25 µM and the “fold change (FC)” value (Acinetobacter baumannii [21]) was 16. For the same molecule, the MIC (Acinetobacter baumannii [22]) was 25 µM, the “fold change (FC)” value (Acinetobacter baumannii [23]) was 16 and the MIC (Acinetobacter baumannii [24]) was 25 µM. The “fold change (FC)” value (Acinetobacter baumannii [25]) was 16, the “fold change (FC)” value (Acinetobacter baumannii [26]) was 16 and the MIC (Acinetobacter baumannii [27]) was 25 µM. The MIC (Acinetobacter baumannii [28]) was 25 µM, the MIC (Acinetobacter baumannii [29]) was 25 µM and the MIC (Acinetobacter baumannii [30]) was 25 µM. For the same molecule, the “fold change (FC)” value (Acinetobacter baumannii [31]) was 16, the MIC (Acinetobacter baumannii [32]) was 25 µM and the MIC (Acinetobacter baumannii [33]) was 0.125 µg/mL. It also gave an MIC (Acinetobacter baumannii [34]) of 25 µM, an MIC (Acinetobacter baumannii [35]) of 25 µM and an MIC (Acinetobacter baumannii [36]) of 25 µM. For the same molecule, the MIC (Acinetobacter baumannii [37]) was 25 µM, the “fold change (FC)” value (Acinetobacter baumannii [38]) was 16 and the MIC (Acinetobacter baumannii [39]) was 25 µM. The “fold change (FC)” value (Acinetobacter baumannii [40]) was 8 and the MIC (Acinetobacter baumannii [41]) was 25 µM.
